Patent publication US5593835A, “Methods and kits for RNA binding compounds” (President and Fellows of Harvard College, priority 1995, dated 1997)
Like-named read-outs stand apart in the source and are kept apart here.

Key:
[1] = molecular target: clone W13 RNA (SEQ ID NO:1), tobramycin-selected RNA aptamer; assay: Equilibrium dialysis binding to clone W13 RNA; conditions: competition studies with 3H-acetyl tobramycin; read-out: dissociation constant
Protocol: One of these RNAs, clone W13 (SEQ ID NO:1) was chosen for quantitative studies to determine the specificity of its binding to RNA. […] The dissociation constant for tobramycin was determined to be 3 μM by competition studies with ^3 H-acetyl tobramycin. These values are close to those measured for tobramycin and ^3 H-acetyl tobramycin binding to ribosomal targets (LeGoffic et al. (1979) Eur. J. Biochem. 102: 73-81).
Equilibrium dialysis measurements were performed according to the procedure of Lorsch et al. (Biochem. (1994) 33: 973-982).

[2] = molecular target: W13 RNA having SEQ ID NO:1; assay: Fluorescence (PYT quenching) titration and competition binding to W13 RNA; conditions: fluorescence; competition with PYT (150 nM PYT, 300 nM W13), 20° C., pH 7.4; N.B. = no measurable binding
Protocol: To study the binding behavior of clone W13, a fluorescently labelled pyrene-conjugated tobramycin derivative "PYT" was prepared.
For competitive binding studies, different concentrations of antibiotic (glucosamine (0-10 mM), erythromycin (0-6 mM), gentamicin C (0-700 μM), or neomycin B (0-650 μM)), were mixed with constant concentrations of RNA (300 nM W13) and PYT (150 nM), in Binding buffer (140 mM NaCl, 5 mM KCl, 1 mM MgCl2, 1 mM CaCl2, 20 mM HEPES, pH 7.4), 750 μl total volume, for 1-5 min. at 20° C. in a semimicro-cell cuvette. The fluorescence was measured on a Perkin-Elmer Model 512 double beam fluorescence spectrophotometer. The excitation wavelength used was 341 nm. The intensities of fluorescence emission at 380 nm were used to calculate dissociation constants. Generally 8 to 10 points were used for calculation.
(§1) Steady state fluorescence measurements were performed on a double beam fluorescence spectrometer (Perkin-Elmer Model 512, Norwalk, Conn.). The excitation wavelength was 341 nm. All measurements were done at 20° C. in 140 mM NaCl, 5 mM KCl, 1 mM CaCl2, 1 mM MgCl2, and 20 mM HEPES, pH 7.4. The KD of the PYT and the RNA aptamer was calculated by the curve fitting of the fluorescence intensity as a function of RNA concentration, using the following equation
(assuming a 1:1 complex): I=Io +0.5Δε ([PYT]o
-(([PYT]o +[RNA]o KI)^2 -4[PYT]o [RNA]o)^0.5)
(§2) Competition binding measurements of antibiotics with RNA and PYT were performed at constant concentrations of PYT and RNA by monitoring fluorescence intensity changes as a function of changing concentrations of the antibiotics (a standard fluorescence curve). The KD s for the antibiotics were calculated by the curve fitting of the fluorescence intensity of PYT as a function of antibiotic concentration, using the following equation:
I=Io +Δε[PYT.circle-solid.RNA]
[PYT.circle-solid.RNA]=0.5(([PYT]o +[RNA]o)([RNA]o
+KD)+KI ([T]o +[RNA]o +KD)-((([PYT]o
+[RNA]o)([RNA]o +KD)+KI ([T]o +[RNA]o
+KD))^2 -4([RNA]o +KD) [PYT]o [RNA]o
([RNA]o +KD))^0.5)([RNA]o +KD) (equation 2)
KD and KI are the dissociation constants for the antibiotic and PYT respectively.
[T]o is the total concentration of antibiotic added. Measurements were taken at least twice for each measured KD.

[3] = molecular target: random selected RNA pool (low stringency tobramycin column); assay: Fluorescence assay, average binding of the random selected RNA pool; conditions: overall selected pool mixture
Protocol: To determine whether the W13 RNA clone is representative of the average binding capacity of the random selected RNA pool, the average KD values for the random selected pool were measured. […] Therefore, the W13 RNA is representative of the average binding capacity of the random selected pool.
as §1
as §2, with “equation: […]” for “equation:”

[4] = molecular target: X1 RNA (SEQ ID NO: 3 in Table 3; SEQ ID NO:2 in text); assay: Fluorescence binding measurements, X1 RNA
Protocol: (§3) The binding of tobramycin to two cloned RNAs X1 (SEQ ID NO:2) and J6 (SEQ ID NO:5), representative of both classes of consensus sequences, was measured using the fluorescence techniques described in the exemplification.
as §1
as §2, with “equation: […]” for “equation:”

[5] = molecular target: X1s1 RNA (SEQ ID NO: 3), synthetically derived from the predicted structures; assay: Fluorescence binding measurements, X1s1 RNA
Protocol: as §3
*synthetically derived from the predicted structures
as §1
as §2, with “equation: […]” for “equation:”

[6] = K1 - high affinity, read-out: Dissociation Constants K1(TOB)
[7] = K2 - low affinity, read-out: Dissociation Constants K2(TOB)

## NC[C@H]1O[C@H](O[C@H]2[C@H](O)[C@@H](O[C@H]3O[C@H](CO)[C@@H](O)[C@H](N)[C@H]3O)[C@H](N)C[C@@H]2N)[C@H](N)C[C@@H]1O [tobramycin]
[1]
  Kd: 3 µM
[2]
  Kd: 4.3 ± 0.7 µM
[3]
  Kd: 8.8 ± 0.3 µM
[4]; [6]
  Kd: 0.003 ± 0.001 µM
[4]; [7]
  Kd: 15.9 ± 0.7 µM
[5]; [6]
  Kd: 0.012 ± 0.005 µM
[5]; [7]
  Kd: 13.2 ± 0.5 µM
